Reference: PMC4438668, “Quantitative High-Throughput Identification of Drugs as Modulators of Human Constitutive Androstane Receptor” (Scientific Reports, 2015)
pEC50, pIC50: −log10 of the molar value.

Key:
[1] = target: T1, human CAR (hCAR) (Homo sapiens, UniProt Q14994); assay: hCAR luciferase reporter qHTS, agonist mode (HepG2-CYP2B6-hCAR cells, PK11195 co-treatment); details: for pEC50 / Follow-up Confirmation Efficacy / Primary Screen Efficacy: agonist mode; for Follow-up Confirmation Efficacy: relative to CITCO (100%); for Primary Screen Efficacy: relative to CITCO Emax (100%); for Identified as hCAR agonist in the qHTS: primary qHTS of 2816 NPC compounds
T1 sequence (Q14994 1-348 isoform Q14994-2): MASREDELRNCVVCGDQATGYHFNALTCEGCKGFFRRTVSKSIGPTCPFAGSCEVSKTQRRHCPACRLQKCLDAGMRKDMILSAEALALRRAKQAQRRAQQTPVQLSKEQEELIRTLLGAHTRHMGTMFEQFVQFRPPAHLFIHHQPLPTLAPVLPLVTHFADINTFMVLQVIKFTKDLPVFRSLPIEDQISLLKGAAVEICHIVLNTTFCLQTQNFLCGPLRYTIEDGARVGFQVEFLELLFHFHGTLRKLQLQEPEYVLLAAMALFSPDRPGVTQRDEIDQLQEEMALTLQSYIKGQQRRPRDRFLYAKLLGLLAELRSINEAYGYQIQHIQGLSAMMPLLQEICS
Protocol: The generated stable cell line, namely HepG2-CYP2B6-hCAR, was used to identify hCAR modulators in a qHTS platform. Assays were run in both agonist and antagonist modes. In brief, HepG2-CYP2B6-hCAR cells were dispensed at 2,500 cells/well in 1,536-well plates (Greiner Bio-One North America, Monroe, NC) using a Multidrop Combi (Thermo Fisher Scientific Inc., Waltham, MA). […] Each NPC compound was tested at 8 concentrations ranging from 0.6 nM to 38.3 μM. The assays were incubated at 37 °C for 24 h followed by the addition of 4 μl of the ONE-Glo luciferase reagent (Promega, Madision, WI). The assay plates were incubated at room temperature for 20 min and luminescence intensity was quantified using a ViewLux plate reader (PerkinElmer, Shelton, CT).
(§1) Concentration-response titration points for each compound were then fitted to the Hill equation, yielding half-maximal inhibition (IC50) or activation (EC50) and maximal response (efficacy) values. Compounds from the primary qHTS screen were classified into four major curve classes according to quality of curve fit, potency and efficacy. Class 1.1, 1.2, 2.1, and 2.2 curves were high-quality and thus high-confidence concentration-response curves (CRCs). […] All other curve classes (including those curves with single point activity) were deemed inconclusive. […] Follow-up studies were performed using a new aliquot of samples to confirm sample integrity and assay reproducibility.
These compounds were prepared in 1536-well compound plates at 11-point 3-fold dilution titrations in DMSO, with final concentrations ranging from 0.6 nM to 38.3 μM. All of these compounds were retested in both HepG2-CYP2B6-hCAR and cell viability assays.

[2] = tested on: HepG2-CYP2B6-hCAR cells; assay: Cell viability assay (CellTiter-Glo ATP quantitation); format: cell-based, human; design: key to Cytotoxicity (activity call): Inactive: considered inactive if efficacy is less than 30%; details: 24 h
Protocol: The potential cytotoxicity of the NPC compounds in HepG2-CYP2B6-hCAR cells was measured using a luciferase-coupled ATP quantitation assay (CellTiter-Glo viability assay, Promega). The change of intracellular ATP content indicates the number of metabolically competent cells. The cells were seeded at 2,500 cells/5 μl in 1536-well plates and were exposed to each test compound at concentrations and treatment duration as previously mentioned. The assay plates were incubated for 24 h at 37 °C, followed by the addition of 4 μl/well of CellTiter-Glo reagent. After 30 min incubation at RT, the luminescence intensity of the plates was measured using a ViewLux plate reader.

[3] = tested on: CYP3A4; assay: CYP3A4 mRNA expression in HPH (real-time PCR); format: cell-based, human; details: HPH, 24 h, vs vehicle control (0.1% DMSO)
Protocol: (§2) HPH were isolated from human liver specimens by a modification of the two-step collagenase digestion method as described previously[43] or obtained from Bioreclamation In Vitro Technologies (Baltimore, MD). Fresh HPH were seeded at 1.5 × 10^6, 7.5 × 10^5 or 4.7 × 10^4 cells/well in 6-well, 12-well, or 96-well collagen coated plates, respectively. Hepatocytes were cultured for 36 h at 37 °C before treatment with specified compounds for another 24 or 72 h for detection of mRNA or protein expression in the 6-well and 12-well plates.
(§3) Total RNA was isolated from treated hepatocytes using the TRIzol® reagent and reverse transcribed using a High Capacity cDNA Archive Kit (Applied Biosystems, Foster City, CA) following the manufacturers’ instructions. CYP2B6 and CYP3A4 mRNA expression were normalized against that of GAPDH. Real-time PCR assays were performed in 96-well optical plates on an ABI Prism 7000 Sequence Detection System with SYBR Green PCR Master Mix. […] Induction values were calculated using the equation: Fold = 2ΔΔCt, where ΔCt represents the differences in cycle threshold numbers between CYP2B6 or CYP3A4 and GAPDH, and ΔΔCt represents the relative change in these differences between control and treatment groups.

[4] = target: T1, human CAR (hCAR); assay: hCAR luciferase reporter qHTS, antagonist mode (HepG2-CYP2B6-hCAR cells, CITCO co-treatment); details: for Identified as hCAR antagonist/deactivator in the qHTS: primary qHTS of 2816 NPC compounds;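 for all read-outs here: stable HepG2 line carrying hCAR plus a CYP2B6 promoter (PBREM/XREM) luciferase reporter, 1536-well format, 24 h compound exposure at 37 °C, then luminescence read with ONE-Glo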
Protocol: The pEF6/V5-hCAR expression plasmid and the pGL4.17[luc2/Neo]-CYP2B6-2.2kb construct containing both the PBREM and XREM[40], were co-transfected in HepG2 cells using lipofectamine 2000 reagents (Life Technologies) following the manufacturer’s instruction. Dulbecco’s Modified Eagle Medium (DMEM) containing 10% FBS, 100 U/ml penicillin, 100 μg/ml streptomycin, G418 (0.6-1 mg/ml) and blasticidin (10 μg/ml) were used for the selection of colonies containing a mixed population of drug resistant cells. Subsequently, these cells were transferred to collagen-coated 48-well plates and continually cultured in the same media. Single colony containing both plasmids was selected and functionally verified.
The generated stable cell line, namely HepG2-CYP2B6-hCAR, was used to identify hCAR modulators in a qHTS platform. Assays were run in both agonist and antagonist modes. In brief, HepG2-CYP2B6-hCAR cells were dispensed at 2,500 cells/well in 1,536-well plates (Greiner Bio-One North America, Monroe, NC) using a Multidrop Combi (Thermo Fisher Scientific Inc., Waltham, MA). […] The assays were incubated at 37 °C for 24 h followed by the addition of 4 μl of the ONE-Glo luciferase reagent (Promega, Madision, WI). The assay plates were incubated at room temperature for 20 min and luminescence intensity was quantified using a ViewLux plate reader (PerkinElmer, Shelton, CT).
as §1
All of these compounds were retested in both HepG2-CYP2B6-hCAR and cell viability assays.

[5] = target: T2, hPXR (Homo sapiens, UniProt O75469); assay: Transient hPXR luciferase assay in HepG2 cells (CYP2B6-2.2 kb reporter); format: cell-based; details: HepG2, 24 h, in the presence or absence of rifampicin (10 μM)
T2 construct: expressed in transfected cells; host or cells: HepG2 (transient transfection)
T2 sequence (O75469 1-434): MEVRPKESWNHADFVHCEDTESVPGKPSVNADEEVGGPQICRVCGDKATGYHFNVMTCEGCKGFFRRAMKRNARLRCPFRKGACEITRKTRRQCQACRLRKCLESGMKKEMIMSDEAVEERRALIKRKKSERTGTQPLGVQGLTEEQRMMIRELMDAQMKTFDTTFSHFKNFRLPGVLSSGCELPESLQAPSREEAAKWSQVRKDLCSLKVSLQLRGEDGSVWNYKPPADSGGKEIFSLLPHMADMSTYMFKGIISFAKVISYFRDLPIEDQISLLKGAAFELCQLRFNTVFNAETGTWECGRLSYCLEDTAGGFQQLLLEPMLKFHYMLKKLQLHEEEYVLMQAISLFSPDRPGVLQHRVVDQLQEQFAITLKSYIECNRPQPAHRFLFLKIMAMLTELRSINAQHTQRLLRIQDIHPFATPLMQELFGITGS
Protocol: HepG2 cells cultured in a 24-well plate were co-transfected with the CYP2B6-2.2 kb reporter and hPXR expression vectors using a Lipofectamine® 2000 Transfection Kit (Life Technologies) following the manufacturer’s instruction. […] Cell lysates were assayed for firefly luciferase activities normalized against the activities of co-transfected Renilla luciferase using a Dual-Luciferase Kit (Promega). Data were represented as mean±SD of three individual transfections.

[6] = tested on: CYP2B6; assay: CYP2B6 mRNA expression in HPH (real-time PCR); details: HPH, 24 h, vs vehicle control (0.1% DMSO)
Protocol: as §2, §3

[7] = Follow-up Confirmation Potency (EC50), follow-up cherry-pick, 11-point titration
[8] = Primary Screen Potency (EC50), primary qHTS, 2.5 μM PK11195, 24 h
[9] = Follow-up Confirmation Potency (IC50), antagonist mode, follow-up cherry-pick, 11-point titration
[10] = Primary Screen Potency (IC50), antagonist mode, primary qHTS, 0.1 μM CITCO, 24 h
[11] = antagonist mode, follow-up cherry-pick, relative to PK11195 (100%)

CC(COc1ccccc1)N(CCCl)Cc1ccccc1 (stereo not shown) [Phenoxybenzamine]
pEC50 [1, 7]: 4.92
pEC50 [1, 8]: 5.02
Follow-up Confirmation Efficacy ([1]; follow-up cherry-pick): 49%
Primary Screen Efficacy ([1]; primary qHTS): 57%

CC[C@@]1(O)C(=O)OCc2c1cc1n(c2=O)Cc2cc3c(CN(C)C)c(O)ccc3nc2-1 [Topotecan]
Cytotoxicity (activity call) [2]: Inactive
Effect on CYP3A4 mRNA expression [3]: negligible effect
pIC50 [4, 9]: 6.44
pIC50 [4, 10]: 7.22
Follow-up Confirmation Efficacy [4, 11]: -109%
Primary Screen Efficacy ([4]; antagonist mode, primary qHTS, relative to PK11195 (100%)): -94%

CCCCNc1c(C(=O)OCC)c(C)nc2c1cnn2CC [Tracazolate]
pEC50 [1, 7]: 4.62
pEC50 [1, 8]: 4.77
Follow-up Confirmation Efficacy ([1]; follow-up cherry-pick): 101%
Primary Screen Efficacy ([1]; primary qHTS): 27%

O=c1[nH]c(=O)n([C@H]2C[C@H](O)[C@@H](CO)O2)cc1C(F)(F)F [Trifluridine]
Cytotoxicity (activity call) [2]: Inactive
Effect on basal and RIF-induced PXR activity [5]: no effects on either basal or RIF-induced hPXR activation
Effect on CYP2B6 mRNA expression [6]: moderately induced
pIC50 [4, 9]: 5.35
pIC50 [4, 10]: 5.17
Follow-up Confirmation Efficacy [4, 11]: -73%

Clc1ccc(Nc2nnc(Cc3ccncc3)c3ccccc23)cc1 [Vatalanib]
Effect on CYP3A4 mRNA expression [3]: markedly enhanced
Effect on CYP2B6 mRNA expression [6]: significantly induced
pEC50 [1, 7]: 4.90
pEC50 [1, 8]: 4.97
Follow-up Confirmation Efficacy ([1]; follow-up cherry-pick): 97%
Primary Screen Efficacy ([1]; primary qHTS): 68%

Clc1ccccc1C(c1ccccc1)(c1ccccc1)n1ccnc1 [clotrimazole]
Identified as hCAR antagonist/deactivator in the qHTS [4]: recognized in the current study

COC(=O)Nc1nc2ccc(C(=O)c3cccs3)cc2[nH]1 [nocodazole]
Identified as hCAR agonist in the qHTS [1]: hCAR agonist from the current study

O=C1OC(c2ccc(O)cc2)(c2ccc(O)cc2)c2ccccc21 [phenolphthalein]
Identified as hCAR antagonist/deactivator in the qHTS [4]: recognized in the current study

Cc1cccc(N(C)C(=S)Oc2ccc3ccccc3c2)c1 [tolnaftate]
Identified as hCAR agonist in the qHTS [1]: agonists identified

O=C(Nc1ccc(Cl)cc1)Nc1ccc(Cl)c(Cl)c1 [triclocarban]
Identified as hCAR agonist in the qHTS [1]: agonists identified
